Data taken from patent publication US6156291A, “Chemical and pharmacological standardization of herbal extracts” (CV Technologies Inc., priority 1998, dated 2000).
“Also recorded” adds a separate entry of the source.

What was measured:
rat brain synaptosomes [1] = experiment: choline uptake in rat brain synaptosomes; type: biochemical; conditions: for effect on choline uptake (FIG. 1): various doses, rat brain synaptosomes
Source text: (1) Effects of CVT-E001 on choline uptake in isolated brain synaptosomes in rats
(§1) Choline uptake has been examined in synaptosome preparations from whole brain and hippocampus in the presence of Rb1, CVT-E001 and HC3.
The magnitude of these effects are consistent with the previous studies.

rat brain synaptosomes [2] = conditions: literature (Benishin, 1992); Rb1 positive control, HC3 negative control; cited from earlier work
[3] = system: synaptosomes prepared from rat hippocampus; experiment: choline uptake into synaptosomes prepared from rat hippocampus; type: biochemical; conditions: Table 2
Source text: as §1
This observation is not unexpected as many pharmacological compounds have an optimal dose range and more or less of the material results in less biological activity.

[4] = system: dorsal and sympathetic ganglia; conditions: literature (Saito 1985), cited from earlier work; for neurite outgrowth by NGF: in presence of NGF; for neurite outgrowth without NGF: on its own
[5] = pure ginsenosides; literature; cited from earlier work
[6] = Morris Water Maze and Scopolamine induced Amnesia Model; type: in vivo, rat
Source text: As CVT-E001 is a mixture of ginsenosides, it may not have the same properties as pure saponins. […] Rats are required to learn the location of a hidden platform in a murky swimming pool. […] The effects of CVT-E001 on memory can also be examined in scopolamine induced amnesia (scopolamine interferes with the cholinergic neurotransmitter system and impedes learning and memory). If CVT-E001 enhances learning and/or memory it should facilitate task acquisition and/or protect against memory loss in scopolamine treated animals.
A study was designed of spatial learning and memory using the Morris water maze and scopolamine induced amnesia with CVT-E001 as the test compound. The specific aim of the experiment was to test if CVT-E001 affected the acquisition and/or retention of a new task in the presence of scopolamine induced amnesia. Rats (S/D strain males, 200-250 g, about 8 weeks old) are initially divided into two groups and fed either water (0.5 ml) or CVT-E001 (200 mg/kg/day in 0.5 ml water by gavage) for the duration of the experiment. Eight days after the initiation of CVT-E001 administration rats are given the task of learning the position of a platform hidden in a pool of murky water. The rats are placed in the pool 4 times per day for 5 days and the time required to find the platform in recorded (maximum duration 5 minutes). This time becomes shorter as the rats learn the task. On day 14 the two groups of rats are further subdivided into four groups. Six rats from each of the initial two groups receive saline injections while the remaining six rats from each initial group receive scopolamine (2 mg/kg) prior to being required to find the platform which has been moved to a new location (3 trials, maximum duration 3 minutes within 30 minutes of receiving either saline or scopolamine injection. On day 15 the procedure for day 14 was repeated with the platform remaining located in the position designated on day 14. On day 16, the procedure from day 14 was again followed except that the platform was moved to a location on the opposite side of the pool. On day 17 the procedure followed on day 14 was repeated except that the platform remains in the location designated on day 16. In each instance the time to locate the platform is recorded.
This experiment was repeated twice using 24 rats each time. The data from the two experiments was combined. One CVT-E001 treated rat died from accidental administration of CVT-E001 into the lungs.
Statistical analysis was by analysis of variance on log transformed data. As a posteriori test of significance were performed using the Newman-Keulstest.

[7] = system: PC12 (pheochromocytoma) cell lines; experiment: neurite outgrowth in PC12 cells; type: cell-based; conditions: seven days after treatment; FIGS. 26, 27
Description: PC12 cells were seeded and maintained in 100 cm^2 tissue culture dishes at 37° C. in RRMI1640 containing 1% antibiotics, 10% heated inactivated horse serum and 5% fetal bovine serum in a water saturated atmosphere of 95% air and 5% CO2. NIE-115 cells were maintained in a flask in 90% DMEM (Dulbecco's Modified Eagle Medium, Gibco, Grand Island, N.Y., USA) with 10% FBS and antibiotic PNS (penicillin, neomycin streptomycin). The culture plates were maintained in a temperature-controlled (37° C.) humidified atmosphere consisting of 95% room air and 5% CO2. The cells were mechanically dislodged for the experiment by forceful aspiration of the medium through a Pasteur pipette and plated in 35 mm collagen-coated tissue culture dishes containing a total of 2.0 ml of complete medium at a density of 1×10^4 cells/ml. […]
The cellular response to Nerve Growth Factor (NGF) and samples were determined by counting the number of cells contained processes in PC12 cells. […]
The cells and neurites were counted as follows.
Cells with circular or global shapes and no neurite outgrowth were scored as 0 (S0).
Cells with more than two small neurites on the cell bodies were scored as S2.
Cells with one or two neurites with the length of at least two times diameter as their body were scored as S3.
Cells with more than two long neurites were scored as S4.
The neurite index was calculated as below: […]

[8] = system: PC12 (pheochromocytoma) cell lines; conditions: literature; cited from earlier work

Molecule | effect on choline uptake (FIG. 1) (rat brain synaptosomes [1]) | choline uptake, previously demonstrated (rat brain synaptosomes [2]) | neurite outgrowth by NGF [4] | neurite outgrowth without NGF [4] | learning and memory [5] | also measured
C[N+]1(C)CCOC(O)(c2ccc(-c3ccc(C4(O)C[N+](C)(C)CCO4)cc3)cc2)C1 (stereo not shown) [HC3] | inhibits choline uptake | inhibit choline uptake | – | – | – | –
CC(C)=CCC[C@](C)(O[C@@H]1O[C@H](CO[C@@H]2O[C@H](CO)[C@@H](O)[C@H](O)[C@H]2O)[C@@H](O)[C@H](O)[C@H]1O)[C@H]1CC[C@]2(C)[C@@H]1[C@H](O)C[C@@H]1[C@@]3(C)CC[C@H](O[C@@H]4O[C@H](CO)[C@@H](O)[C@H](O)[C@H]4O[C@@H]4O[C@H](CO)[C@@H](O)[C@H](O)[C@H]4O)C(C)(C)[C@@H]3CC[C@]12C [Rb1, ginsenoside Rb1] | promotes choline uptake | increase choline uptake into synaptosomes | enhance neurite outgrowth of dorsal and sympathetic ganglia | no effect on its own | enhance learning and memory; also recorded: improve memory in experimental animals | stimulation of choline uptake (in words) (rat brain synaptosomes [1]; Table 3): significantly stimulate choline uptake; potency ranking, choline uptake (rat brain synaptosomes [1]; Table 3, CVT-E001 contains 8.1% Rb1, 32.4% total ginsenosides, n = 4): CVTE001 > TS > Rb1; choline uptake (in words) [3]: increase choline uptake
CC(C)=CCC[C@](C)(O[C@@H]1O[C@H](CO)[C@@H](O)[C@H](O)[C@H]1O)[C@H]1CC[C@]2(C)[C@@H]1[C@H](O)C[C@@H]1[C@@]3(C)CC[C@H](O[C@@H]4O[C@H](CO)[C@@H](O)[C@H](O)[C@H]4O[C@@H]4O[C@H](CO)[C@@H](O)[C@H](O)[C@H]4O)C(C)(C)[C@@H]3CC[C@]12C [Rd, ginsenoside Rd] | – | – | enhance neurite outgrowth of dorsal and sympathetic ganglia | no effect on its own | – | –
CC(C)=CCC[C@](C)(O[C@@H]1O[C@H](CO)[C@@H](O)[C@H](O)[C@H]1O)[C@H]1CC[C@]2(C)[C@@H]1[C@H](O)C[C@@H]1[C@@]3(C)CC[C@H](O)C(C)(C)[C@@H]3[C@@H](O[C@@H]3O[C@H](CO)[C@@H](O)[C@H](O)[C@H]3O)C[C@]12C [Rg1, ginsenoside Rg1] | – | – | – | – | enhance learning and memory; also recorded: improve memory in experimental animals | –
CN1[C@@H]2C[C@@H](OC(=O)[C@H](CO)c3ccccc3)C[C@H]1[C@@H]1O[C@@H]12 [scopolamine] | – | – | – | – | – | latency remembering platform location, combined trials ([6]; day 15, scopolamine 2 mg/kg, CVT-E001 200 mg/kg/day, FIG. 19): significantly greater latency than all other groups; latency to second new platform location, trial 3 ([6]; day 16, scopolamine 2 mg/kg, FIG. 20): demonstrated a scopolamine induced learning deficit; latency remembering second platform location, first trial ([6]; day 17, scopolamine 2 mg/kg with or without CVT-E001 200 mg/kg/day, FIG. 22): significantly impaired; latency remembering second platform location, combined trials ([6]; day 17, scopolamine 2 mg/kg with or without CVT-E001 200 mg/kg/day, FIG. 23): demonstrate a learning deficit
NGF: Nerve Growth Factor, prototype neurotrophin | – | – | – | – | – | neurite outgrowth in PC12 [7]: increased neurite outgrowth in PC12 in a dose-dependent manner; PC12 response to NGF treatment [8]: neurite outgrowth and electrical excitability
